Experimental data reported in patent publication US20230278972A1, “SUBSTITUTED HALOALKYL SULFONANILIDE HERBICIDES” (FMC Corporation, priority 2020, published 2023).

What was measured:
Type in all cases: in vivo
[1] = test system: barnyardgrass (Echinochloa crus-galli); assay: Test A preemergence, barnyardgrass; conditions: Preemergence; for Plant response rating, Barnyardgrass: 31 g ai/ha, visual injury, 0 to 100 scale (0 no effect, 100 complete control), approx. 10 days; for Barnyardgrass plant response rating: 125 g ai/ha, visual injury on 0 to 100 scale (0 no effect, 100 complete control), approximately 10 days
How it was run: (§1)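 Greenhouse pot test in a loam–sand blend; compounds delivered in a non-phytotoxic solvent carrying a surfactant, applied either as a directed spray to soil at seeding or over seedlings 2 to 10 cm high with one to two leaves.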

[2] = test system: pigweed (Amaranthus retroflexus); assay: Test A postemergence, pigweed; conditions: Postemergence
How it was run: as §1

[3] = test system: ragweed (common ragweed, Ambrosia artemisiifolia); assay: Test A preemergence, ragweed; conditions: Preemergence; for Plant response rating, Ragweed: 31 g ai/ha, visual injury, 0 to 100 scale (0 no effect, 100 complete control), approx. 10 days; for Ragweed plant response rating: 125 g ai/ha, visual injury on 0 to 100 scale (0 no effect, 100 complete control), approximately 10 days
How it was run: as §1

[4] = test system: Foxtail, Giant (giant foxtail, Setaria faberi); assay: Test A preemergence, Foxtail, Giant; conditions: Preemergence; for Plant response rating, Foxtail, Giant: 31 g ai/ha, visual injury, 0 to 100 scale (0 no effect, 100 complete control), approx. 10 days; for Foxtail, Giant plant response rating: 125 g ai/ha, visual injury on 0 to 100 scale (0 no effect, 100 complete control), approximately 10 days
How it was run: as §1

[5] = test system: wheat (Triticum aestivum); assay: Test A postemergence, wheat; conditions: Postemergence
How it was run: (§2)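 Pots: loam soil/sand blend. Pre: directed soil spray at planting. Post: plants 2–10 cm, 1–2 leaf stage. Formulation: non-phytotoxic solvent + surfactant.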

[6] = test system: galium (catchweed bedstraw, Galium aparine); assay: Test A postemergence, galium; conditions: Postemergence
How it was run: as §2

corn (Zea mays) = assay: Test A postemergence, corn; conditions: Postemergence
How it was run: as §1

kochia (Bassia scoparia) [7] = assay: Test A preemergence, kochia; conditions: Preemergence; for Plant response rating, Kochia: 31 g ai/ha, visual injury, 0 to 100 scale (0 no effect, 100 complete control), approx. 10 days; for Kochia plant response rating: 125 g ai/ha, visual injury on 0 to 100 scale (0 no effect, 100 complete control), approximately 10 days
How it was run: as §1

[8] = test system: pigweed (Amaranthus retroflexus); assay: Test A preemergence, pigweed; conditions: for Plant response rating, Pigweed: 31 g ai/ha, visual injury, 0 to 100 scale (0 no effect, 100 complete control), approx. 10 days; for Pigweed plant response rating: 125 g ai/ha, visual injury on 0 to 100 scale (0 no effect, 100 complete control), approximately 10 days
How it was run: as §2

kochia (Bassia scoparia) [9] = assay: Test A postemergence, kochia; conditions: Postemergence
How it was run: as §1

[10] = test system: ragweed (common ragweed, Ambrosia artemisiifolia); assay: Test A postemergence, ragweed; conditions: Postemergence
How it was run: as §1

[11] = test system: Ryegrass, Italian (Italian ryegrass, Lolium multiflorum); assay: Test A postemergence, Ryegrass, Italian; conditions: Postemergence
How it was run: as §1

[12] = test system: blackgrass (Alopecurus myosuroides); assay: Test A postemergence, blackgrass; conditions: Postemergence
How it was run: as §1

[13] = test system: Ryegrass, Italian (Italian ryegrass, Lolium multiflorum); assay: Test A preemergence, Ryegrass, Italian; conditions: Preemergence; for Plant response rating, Ryegrass, Italian: 31 g ai/ha, visual injury, 0 to 100 scale (0 no effect, 100 complete control), approx. 10 days; for Ryegrass, Italian plant response rating: 125 g ai/ha, visual injury on 0 to 100 scale (0 no effect, 100 complete control), approximately 10 days
How it was run: as §1

[14] = test system: barnyardgrass (Echinochloa crus-galli); assay: Test A postemergence, barnyardgrass; conditions: Postemergence
How it was run: as §2

[15] = test system: Foxtail, Giant (giant foxtail, Setaria faberi); assay: Test A postemergence, Foxtail, Giant; conditions: Postemergence
How it was run: as §1

[16] = 31 g ai/ha, visual injury on 0 to 100 scale (0 no effect, 100 complete control), approx. 10 days
[17] = 125 g ai/ha, 0 to 100 scale (0 no effect, 100 complete control)
[18] = 31 g ai/ha, 0 to 100 scale (0 no effect, 100 complete control)
[19] = 125 g ai/ha, visual injury approx. 10 days, 0 to 100 scale (0 no effect, 100 complete control)

SMILES	Plant response rating, Barnyardgrass [1]	Barnyardgrass plant response rating [1]	Plant response rating, Pigweed [2, 16]	Plant response rating, Pigweed [2, 17]	Plant response rating, Ragweed [3]	Ragweed plant response rating [3]	Plant response rating, Foxtail, Giant [4]	Foxtail, Giant plant response rating [4]	Plant response rating, Wheat [5, 16]	Plant response rating, Wheat [5, 17]	Plant response rating, Galium [6, 16]	Plant response rating, Galium [6, 17]	Plant response rating, Corn (corn (Zea mays); [16])	Plant response rating, Corn (corn (Zea mays); [17])	Plant response rating, Kochia (kochia (Bassia scoparia) [7])	Kochia plant response rating (kochia (Bassia scoparia) [7])	Plant response rating, Pigweed [8]	Pigweed plant response rating [8]	Plant response rating, Ryegrass, Italian [13]	Ryegrass, Italian plant response rating [13]	further results
Cc1cc(C)c(C2=NOC3(C2)CC(C)CC(C)C3)cc1NS(=O)(=O)C(F)(F)F (single isomer, unassigned) [Compound 167]	0	20	20	70	0	0	0	10	0	30	0	80	0	10	30	40	0	20	30	60	Plant response rating, Kochia (kochia (Bassia scoparia) [9]; [16]): 10; Plant response rating, Kochia (kochia (Bassia scoparia) [9]; [17]): 40; Plant response rating, Ragweed [10, 16]: 0; Plant response rating, Ragweed [10, 17]: 20; Plant response rating, Ryegrass, Italian [11, 16]: 0; Plant response rating, Ryegrass, Italian [11, 17]: 20; Plant response rating, Blackgrass [12, 16]: 0; Plant response rating, Blackgrass [12, 17]: 20; Plant response rating, Barnyardgrass [14, 16]: 10; Plant response rating, Barnyardgrass [14, 17]: 60; Plant response rating, Foxtail, Giant [15, 16]: 0; Plant response rating, Foxtail, Giant [15, 17]: 10
Cc1cc(C)c(C2=NOC3(C2)CC(C)CC(C)C3)cc1NS(=O)(=O)C(F)(F)F (single isomer, unassigned) [Compound 168]	0	60	60	80	0	0	0	0	0	0	70	90	0	0	0	20	0	10	0	40	Plant response rating, Kochia (kochia (Bassia scoparia) [9]; [16]): 0; Plant response rating, Kochia (kochia (Bassia scoparia) [9]; [17]): 10; Plant response rating, Ragweed [10, 16]: 0; Plant response rating, Ragweed [10, 17]: 60; Plant response rating, Ryegrass, Italian [11, 16]: 0; Plant response rating, Ryegrass, Italian [11, 17]: 30; Plant response rating, Blackgrass [12, 16]: 0; Plant response rating, Blackgrass [12, 17]: 10; Plant response rating, Barnyardgrass [14, 16]: 30; Plant response rating, Barnyardgrass [14, 17]: 70; Plant response rating, Foxtail, Giant [15, 16]: 0; Plant response rating, Foxtail, Giant [15, 17]: 10
Cc1cc(Cl)c(NS(=O)(=O)C(F)(F)F)cc1C(=O)N1CCOC(C)C1 (centres unmarked) [Compound 1]	0	80			30	50	20	90							40	70	70	100	40	90	Plant response rating, Pigweed [2, 18]: 50; Plant response rating, Pigweed [2, 19]: 80; Plant response rating, Wheat [5, 18]: 30; Plant response rating, Wheat [5, 19]: 50; Plant response rating, Galium [6, 18]: 90; Plant response rating, Galium [6, 19]: 100; Plant response rating, Corn (corn (Zea mays); [18]): 20; Plant response rating, Corn (corn (Zea mays); [19]): 30; Plant response rating, Kochia (kochia (Bassia scoparia) [9]; [18]): 20; Plant response rating, Kochia (kochia (Bassia scoparia) [9]; [19]): 60; Plant response rating, Ragweed [10, 18]: 80; Plant response rating, Ragweed [10, 19]: 90; Plant response rating, Ryegrass, Italian [11, 18]: 0; Plant response rating, Ryegrass, Italian [11, 19]: 40; Plant response rating, Blackgrass [12, 18]: 0; Plant response rating, Blackgrass [12, 19]: 50; Plant response rating, Barnyardgrass [14, 18]: 70; Plant response rating, Barnyardgrass [14, 19]: 90; Plant response rating, Foxtail, Giant [15, 18]: 20; Plant response rating, Foxtail, Giant [15, 19]: 70
Cc1cc(C(=O)N2CCOC(C)(C)C2)cc(NS(=O)(=O)C(F)(F)F)c1Cl [Compound 2]	0	60			30	90	80	80							20	50	100	100	30	50	Plant response rating, Pigweed [2, 18]: 60; Plant response rating, Pigweed [2, 19]: 70; Plant response rating, Wheat [5, 18]: 40; Plant response rating, Wheat [5, 19]: 60; Plant response rating, Galium [6, 18]: 90; Plant response rating, Galium [6, 19]: 90; Plant response rating, Corn (corn (Zea mays); [18]): 20; Plant response rating, Corn (corn (Zea mays); [19]): 30; Plant response rating, Kochia (kochia (Bassia scoparia) [9]; [18]): 10; Plant response rating, Kochia (kochia (Bassia scoparia) [9]; [19]): 20; Plant response rating, Ragweed [10, 18]: 30; Plant response rating, Ragweed [10, 19]: 80; Plant response rating, Ryegrass, Italian [11, 18]: 0; Plant response rating, Ryegrass, Italian [11, 19]: 40; Plant response rating, Blackgrass [12, 18]: 0; Plant response rating, Blackgrass [12, 19]: 0; Plant response rating, Barnyardgrass [14, 18]: 30; Plant response rating, Barnyardgrass [14, 19]: 80; Plant response rating, Foxtail, Giant [15, 18]: 20; Plant response rating, Foxtail, Giant [15, 19]: 50
